Source: patent US11028051B2, “Tetrahydroquinoline-based bromodomain inhibitors” (St. Jude Children's Research Hospital, priority 2016, dated 2021)

Key:
Experiment in all cases: competitive TR-FRET assay, BET-BD with acetylated peptide ligand
Type in all cases: binding
BRD4-BD2 = BRD4-BD2 (Homo sapiens (Human), UniProt O60885); settings: BRD4-BD2; Table 11 additional modifications; read-out: 4.2 EC50
Procedure: (§1) Inhibitor potency was determined using a competitive TR-FRET assay as detailed herein, measuring interaction of the respective BET-BD with an acetylated peptide ligand (Table 2).

BRD2-BD1 = BRD2-BD1 (Homo sapiens (Human), UniProt P25440); settings: BRD2-BD1; Table 11 additional modifications; read-out: 2.1 EC50
BRD2-BD1, sequence (P25440 74-180): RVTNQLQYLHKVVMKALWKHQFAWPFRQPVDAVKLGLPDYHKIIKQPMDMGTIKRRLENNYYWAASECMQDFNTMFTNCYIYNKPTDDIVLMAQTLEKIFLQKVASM
Procedure: as §1

BRD4-BD1 = BRD4-BD1 (Homo sapiens (Human), UniProt O60885); settings: BRD4-BD1; Table 11 additional modifications; read-out: 4.1 EC50
Procedure: as §1

BRD2-BD2 = BRD2-BD2 (Homo sapiens (Human), UniProt P25440); settings: for EC50: BRD2-BD2, Table 11 additional modifications, read-out: 2.2 EC50; for 2.1/2.2: ratio of BRD2-BD1 EC50 to BRD2-BD2 EC50 (selectivity)
BRD2-BD2, sequence (P25440 344-453): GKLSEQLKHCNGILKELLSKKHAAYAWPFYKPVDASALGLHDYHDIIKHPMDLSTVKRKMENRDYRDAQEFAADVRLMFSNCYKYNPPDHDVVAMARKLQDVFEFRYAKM
Procedure: as §1

BRD3-BD1 = BRD3-BD1 (Homo sapiens (Human), UniProt Q15059); settings: BRD3-BD1; Table 11 additional modifications; read-out: 3.1 EC50
BRD3-BD1, sequence (Q15059 34-140): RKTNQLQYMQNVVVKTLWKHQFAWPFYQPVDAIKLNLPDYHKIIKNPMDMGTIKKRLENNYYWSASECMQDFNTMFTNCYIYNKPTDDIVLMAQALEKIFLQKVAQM
Procedure: as §1

BRDT = BRDT (Homo sapiens, UniProt Q58F21); settings: BRDT; Table 11 additional modifications; read-out: BRDT EC50
Procedure: as §1

Compound | EC50 (BRD4-BD2) [nM] | EC50 (BRD2-BD1) [nM] | EC50 (BRD4-BD1) [nM] | EC50 (BRD2-BD2) [nM] | 2.1/2.2 (BRD2-BD2) | EC50 (BRD3-BD1) [nM] | EC50 (BRDT) [nM]
CC(=O)N1c2ccc(-c3ccc4[nH]ccc4c3)cc2[C@H](NC(=O)OC(C)C)C[C@@H]1C [compound 81] | 8100 | 8000 | 6600 | 4700 | 2.7 | 5900 | 
CC(=O)N1c2ccc(-c3cccc(CCO)c3)cc2[C@H](NC(=O)OC(C)C)C[C@@H]1C [compound 89] | 1700 | 1600 | 1400 | 430 | 0.067 | 870 | 
CC(=O)N1c2ccc(-c3cccn(C)c3=O)cc2[C@H](NC(=O)OC(C)C)C[C@@H]1C [compound 87] | 7600 | 68000 | 68000 | 13000 | 5.4 | 13000 | 
CC(=O)N1c2ccc(-c3cccc(CN)c3)cc2[C@H](NC(=O)OC(C)C)C[C@@H]1C [compound 88] | 650 | 2100 | 2900 | 470 | 11 | 1400 | 
CCC(=O)N[C@@H]1C[C@H](C)N(C(C)=O)c2ccc(-c3cccc(NC(C)=O)c3)cc21 [compound 67] | 11000 | 24000 | 60000 | 18000 | 1.4 | 36000 | 
CC(=O)Nc1cccc(-c2ccc3c(c2)[C@H](NC(=O)c2ccccc2)C[C@H](C)N3C(C)=O)c1 [compound 62] | 41000 | 77000 | 77000 | 77000 | 6.0 | 62000 | 
CC(=O)N1c2ccc(-c3cccc(-n4cccn4)c3)cc2[C@H](NC(=O)OC(C)C)C[C@@H]1C [compound 78] | 6700 | 7700 | 6100 | 2900 | 2.6 | 4000 | 
CC(=O)N1c2ccc(-c3ccc(N(C)C)cc3)cc2[C@H](NC(=O)OC(C)C)C[C@@H]1C [compound 57] | 730 | 1500 | 2900 | 790 | 1.9 | 1400 | 
CC(=O)N1c2ccc(-c3ccc(Oc4ccccc4)cc3)cc2[C@H](NC(=O)OC(C)C)C[C@@H]1C [compound 61] | 14000 | 13000 | 11000 | 2100 | 6.2 | 8800 | 
CC(=O)Nc1cccc(-c2ccc3c(c2)[C@H](NC(=O)C(C)C)C[C@H](C)N3C(C)=O)c1 [compound 65] | 7800 |  |  |  | 1.4 |  | 
CCCOc1cccc(-c2ccc3c(c2)[C@H](Nc2ccccc2OC(F)(F)F)C[C@H](C)N3C(C)=O)c1 [compound 167] |  | > 70000 | > 70000 | 2100 | 16 | > 70000 | > 70000
CC(=O)N1c2ccc(-c3cccc(NC(=O)C4CC4)c3)cc2[C@H](NC(=O)OC(C)C)C[C@@H]1C [compound 94] |  | 2000 | 1400 | 170 | 1.2 | 430 | 84000
CC(=O)N1c2ccc(-c3cccc(NC(=O)CC(C)C)c3)cc2[C@H](NC(=O)OC(C)C)C[C@@H]1C [compound 104] |  | 1600 | 940 | 290 | 7.8 | 410 | 1600
CC(=O)N1c2ccc(-c3cccc(NC(=O)CCc4ccccc4)c3)cc2[C@H](NC(=O)OC(C)C)C[C@@H]1C [compound 116] |  | 1200 | 2300 | 380 | 7.0 | 280 | 1200
CC(=O)Nc1cccc(-c2ccc3c(c2)[C@H](Nc2ccc(S(=O)(=O)N(C)C)cc2)C[C@H](C)N3C(C)=O)c1 [compound 175] |  | 2700 | 5500 | 100 | 27 | 1700 | 2900
CC(=O)Nc1cccc(-c2ccc3c(c2)[C@H](Nc2ccc(-c4nnn(C)n4)cc2)C[C@H](C)N3C(C)=O)c1 [compound 27] |  | 220 | 2100 | 35 | 6.3 | 310 | 660
CC(=O)N1c2ccc(-c3cccc(NCc4ccccc4)c3)cc2[C@H](NC(=O)OC(C)C)C[C@@H]1C [compound 117] |  | 600 | 520 | 100 | 39 | 230 | 1200

Compound | EC50 (BRD4-BD2) [nM] | EC50 (BRD2-BD1) [nM] | EC50 (BRD4-BD1) [nM] | EC50 (BRD2-BD2) [nM] | 2.1/2.2 (BRD2-BD2) | EC50 (BRD3-BD1) [nM] | EC50 (BRDT) [nM]
CC(=O)N1c2ccc(-c3cccc(NC(=O)C4CCC(C)CC4)c3)cc2[C@H](NC(=O)OC(C)C)C[C@@H]1C (stereo partly drawn) [compound 102] |  | 4800 | 3800 | 430 | 40 | 530 | 1200
COC(=O)c1ccc(N[C@@H]2C[C@H](C)N(C(C)=O)c3ccc(-c4cccc(NC(C)=O)c4)cc32)c(OC)c1 [compound 161] |  | 870 | > 30000 | 44 | 20 | > 30000 | 760
CC(=O)Nc1cccc(-c2ccc3c(c2)[C@H](Nc2ccc(C(=O)OC(C)(C)C)cc2)C[C@H](C)N3C(C)=O)c1 [compound 176] |  | 10000 | 16000 | 750 | 30 | 8500 | 13000
COC(=O)c1ccc(N[C@@H]2C[C@H](C)N(C(C)=O)c3ccc(-c4cccc(OCCN5CCOCC5)c4)cc32)cc1 [compound 166] |  | 130 | 640 | 20 | 6.5 | 150 | 280
CCCC(=O)Nc1cccc(-c2ccc3c(c2)[C@H](NC(=O)OC(C)C)C[C@H](C)N3C(C)=O)c1 [compound 101] |  | 1100 | 950 | 110 | 3.3 | 340 | 1300
CC(=O)N1c2ccc(-c3cccc(NCC4CC4)c3)cc2[C@H](NC(=O)OC(C)C)C[C@@H]1C [compound 108] |  | 2500 | 1700 | 360 | 1.3 | 370 | 59000
CCCNc1cccc(-c2ccc3c(c2)[C@H](NC(=O)OC(C)C)C[C@H](C)N3C(C)=O)c1 [compound 111] |  | 1900 | 1800 | 520 | 0.091 | 650 | 3900
COc1cc(F)ccc1N[C@@H]1C[C@H](C)N(C(C)=O)c2ccc(-c3cc[nH]n3)cc21 [compound 170] |  | 3100 | > 26000 | 140 | 6.5 | 14000 | 4900
CC(=O)Nc1cccc(-c2ccc3c(c2)[C@H](NC(=O)C(C)C)C[C@H](C)N3C(C)=O)c1 [compound 71] | 11000 |  |  |  | 4.9 |  | 
CC(=O)Nc1cccc(-c2ccc3c(c2)[C@H](Nc2cccc4ncccc24)C[C@H](C)N3C(C)=O)c1 [compound 31] |  | 880 | 590 | 20 | 44 | 290 | 1200
CC(=O)Nc1cccc(-c2ccc3c(c2)[C@H](Nc2cccc4ccccc24)C[C@H](C)N3C(C)=O)c1 [compound 32] |  | > 23000 | > 23000 | > 23000 |  | > 23000 | > 23000
CC(=O)N1c2ccc(-c3cccc(NC(=O)c4ccccc4)c3)cc2[C@H](NC(=O)OC(C)C)C[C@@H]1C [compound 107] |  | 1200 | 810 | 160 | 11 | 170 | 490
CCCOc1cccc(-c2ccc3c(c2)[C@H](Nc2ccc(F)cc2OC)C[C@H](C)N3C(C)=O)c1 [compound 168] |  | 35000 | > 57000 | 1200 | 99 | 45000 | 39000
CC(=O)Nc1cccc(-c2ccc3c(c2)[C@H](Nc2ccc(C(=O)N(C)C)cc2)C[C@H](C)N3C(C)=O)c1 [compound 174] |  | 900 | > 15000 | 40 | 58 | 1100 | 1200
CC(=O)N1c2ccc(-c3cccc(NCCC(C)(C)C)c3)cc2[C@H](NC(=O)OC(C)C)C[C@@H]1C [compound 106] |  | 3900 | 3300 | 43000 | 10 | 980 | 7000
CC(=O)N1c2ccc(-c3cccc(NCC4CCCCC4)c3)cc2[C@H](NC(=O)OC(C)C)C[C@@H]1C [compound 112] |  | 7200 | 5000 | 2500 | 3.6 | 2100 | 4400
CC(=O)N1c2ccc(-c3cccc(NCC(C)C)c3)cc2[C@H](NC(=O)OC(C)C)C[C@@H]1C [compound 96] |  | 2600 | 1900 | 790 | 11 | 830 | 6200
